Reference: PubChem BioAssay AID330 (DTP/NCI, 2004)
“And” between values parts separate entries of the source, which are not always exact repeats. Identical values can stand only once. Toxic doses and inconclusive results are not listed. Rule for the calls: active = survival T/C of 150% or more; inactive = T/C below 125% in these data. Bridge positions count the residues as written; N and C are the ends. Peptide text beside a SMILES is read from it. I, II: the chains in the order shown. * marks the point of attachment. Cbz = O=C(OCc1ccccc1)*

Test system: P388 leukemia ip, CD2F1 mice, survival T/C
Experiment: NCI In Vivo Anticancer Drug Screen. Data for tumor model P388 Leukemia (intraperitoneal) in CD2F1 (CDF1) mice
Settings: endpoint: median survival time, higher = longer survival
Method in brief: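 Mice carrying the transplanted tumor received test compound or vehicle. Survival was recorded in each group, and the value is the treated-group measurement divided by that of the vehicle-treated control group.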

[1] = dose: 50.0 mg/kg/injection, schedule: Q01DX009 (ip), vehicle: Klucel (hydroxypropylcellulose) (HPC)
[2] = dose: 100.0 mg/kg/injection, schedule: Q01DX009 (ip), vehicle: Klucel (hydroxypropylcellulose) (HPC)
[3] = dose: 200.0 mg/kg/injection, schedule: Q01DX009 (ip), vehicle: Klucel (hydroxypropylcellulose) (HPC)
[4] = dose: 50.0 mg/kg/injection, schedule: Q01DX009 (ip), vehicle: saline with Tween-80
[5] = dose: 100.0 mg/kg/injection, schedule: Q01DX009 (ip), vehicle: saline with Tween-80
[6] = dose: 200.0 mg/kg/injection, schedule: Q01DX009 (ip), vehicle: saline with Tween-80
[7] = dose: 50.0 mg/kg/injection, schedule: Q01DX005 (ip), vehicle: Klucel (hydroxypropylcellulose) (HPC)
[8] = dose: 100.0 mg/kg/injection, schedule: Q04DX002 (ip), vehicle: saline
[9] = dose: 400.0 mg/kg/injection, schedule: Q01DX009 (ip), vehicle: saline with Tween-80
[10] = dose: 50.0 mg/kg/injection, schedule: Q01DX005 (ip), vehicle: saline
[11] = dose: 100.0 mg/kg/injection, schedule: Q01DX005 (ip), vehicle: saline
[12] = dose: 200.0 mg/kg/injection, schedule: Q01DX005 (ip), vehicle: saline

Measured: T/C

CC(C)Sc1nc2ccc(NC(=O)/C=C/C(=O)O)cc2s1
inactive: [1] 100 % of control | [2] 104 % of control | [3] 101 % of control

CCOC(=O)c1c(C)c(C(=O)OCC)n2cnc(C(=O)OC)cc12
inactive: dose: 25.0 mg/kg/injection, schedule: Q04DX002 (ip), vehicle: saline with Tween-80 97 % of control | dose: 50.0 mg/kg/injection, schedule: Q04DX002 (ip), vehicle: saline with Tween-80 106 % of control and 94 % of control | dose: 100.0 mg/kg/injection, schedule: Q04DX002 (ip), vehicle: saline with Tween-80 103 % of control and 122 % of control and 97 % of control | dose: 200.0 mg/kg/injection, schedule: Q04DX002 (ip), vehicle: saline with Tween-80 104 % of control (2×) and 97 % of control | dose: 400.0 mg/kg/injection, schedule: Q04DX002 (ip), vehicle: saline with Tween-80 113 % of control

On1cc/c(=N\N=C\c2ccc(N(CCCl)CCCl)cc2)c2ccc(Cl)cc21
inactive: [4] 101 % of control | [5] 101 % of control | [6] 94 % of control

CCCCCCCCCCCCCCCC(=O)N(CCCN(CC)CC)C(C)CCCN(CC)CC (stereo unspecified)
inactive: dose: 0.38 mg/kg/injection, schedule: Q01DX009 (ip), vehicle: water 96 % of control | dose: 0.75 mg/kg/injection, schedule: Q01DX009 (ip), vehicle: water 98 % of control | dose: 1.5 mg/kg/injection, schedule: Q01DX009 (ip), vehicle: water 98 % of control | dose: 3.0 mg/kg/injection, schedule: Q01DX009 (ip), vehicle: water 95 % of control | dose: 6.0 mg/kg/injection, schedule: Q01DX009 (ip), vehicle: water 92 % of control

CN(NC(=O)C(=O)NCc1ccco1)C(=O)NC1CCCCC1
inactive: [7] 103 % of control | dose: 100.0 mg/kg/injection, schedule: Q01DX005 (ip), vehicle: Klucel (hydroxypropylcellulose) (HPC) 100 % of control | dose: 200.0 mg/kg/injection, schedule: Q01DX005 (ip), vehicle: Klucel (hydroxypropylcellulose) (HPC) 96 % of control

Cn1cc/c(=N\N=c2/ccn(C)c3ccccc23)c2ccccc21
inactive: dose: 25.0 mg/kg/injection, schedule: Q04DX002 (ip), vehicle: saline 101 % of control | dose: 50.0 mg/kg/injection, schedule: Q04DX002 (ip), vehicle: saline 104 % of control | [8] 99 % of control and 103 % of control

NC(=S)c1cccc(-c2ccccn2)n1
inactive: dose: 100.0 mg/kg/injection, schedule: Q04DX003 (ip), vehicle: Klucel (hydroxypropylcellulose) (HPC) 102 % of control | dose: 200.0 mg/kg/injection, schedule: Q04DX003 (ip), vehicle: Klucel (hydroxypropylcellulose) (HPC) 103 % of control

COc1ccc(N=C(N=C(NC(=O)c2ccccc2)c2ccccc2)c2ccccc2)cc1
inactive: [4] 104 % of control and 95 % of control | [5] 103 % of control and 92 % of control | [6] 100 % of control

CC(CN)c1ccccc1 (stereo unspecified)
inactive: dose: 12.5 mg/kg/injection, schedule: Q01DX009 (ip), vehicle: saline 111 % of control | dose: 25.0 mg/kg/injection, schedule: Q01DX009 (ip), vehicle: saline 101 % of control | dose: 50.0 mg/kg/injection, schedule: Q01DX009 (ip), vehicle: saline 101 % of control and 103 % of control

CC(=O)c1c[nH]cc1CO
inactive: [4] 107 % of control | [5] 100 % of control | [6] 98 % of control

Cc1ccc2sc(=S)sc2c1
inactive: [1] 89 % of control | [2] 99 % of control | [3] 96 % of control

CCOC(=O)CCC1(C(=O)OC)C(=O)CCCCCCC1C(=O)OC (stereo unspecified)
inactive: [5] 95 % of control | [6] 100 % of control | [9] 100 % of control

CC(C)(C)OC(=O)NNS(=O)(=O)CCC(N)C(=O)O (stereo unspecified)
inactive: dose: 12.5 mg/kg/injection, schedule: Q01DX009 (ip), vehicle: other 106 % of control | dose: 25.0 mg/kg/injection, schedule: Q01DX009 (ip), vehicle: other 106 % of control | dose: 50.0 mg/kg/injection, schedule: Q01DX009 (ip), vehicle: other 97 % of control | dose: 100.0 mg/kg/injection, schedule: Q01DX009 (ip), vehicle: other 97 % of control | dose: 200.0 mg/kg/injection, schedule: Q01DX009 (ip), vehicle: other 100 % of control

CC1NC(=O)C(NC(=O)OCc2ccccc2)COC(=O)C(C(C)C)NC(=O)C2CSSCC(NC1=O)C(=O)NC(C(C)C)C(=O)OCC(NC(=O)OCc1ccccc1)C(=O)NC(C)C(=O)N2 (stereo unspecified) (I: Cbz-SACV / II: Cbz-SACV; ester I:1-II:C, I:C-II:1; disulfide I:3-II:3; configuration not given here)
inactive: dose: 1.25 mg/kg/injection, schedule: Q01DX005 (ip), vehicle: Klucel (hydroxypropylcellulose) (HPC) 101 % of control | dose: 2.5 mg/kg/injection, schedule: Q01DX005 (ip), vehicle: Klucel (hydroxypropylcellulose) (HPC) 101 % of control | dose: 5.0 mg/kg/injection, schedule: Q01DX005 (ip), vehicle: Klucel (hydroxypropylcellulose) (HPC) 99 % of control | dose: 10.0 mg/kg/injection, schedule: Q01DX005 (ip), vehicle: Klucel (hydroxypropylcellulose) (HPC) 96 % of control | dose: 12.5 mg/kg/injection, schedule: Q01DX005 (ip), vehicle: Klucel (hydroxypropylcellulose) (HPC) 96 % of control | dose: 25.0 mg/kg/injection, schedule: Q01DX005 (ip), vehicle: Klucel (hydroxypropylcellulose) (HPC) 96 % of control | [7] 99 % of control

CN(CCO)c1ncnc2c1ncn2C
inactive: [10] 99 % of control | [11] 108 % of control | [12] 100 % of control

COC1=CC(=N/Br)/C=CC/1=N/Br
inactive: [10] 98 % of control and 103 % of control | [11] 99 % of control and 100 % of control and 105 % of control | [12] 99 % of control and 107 % of control and 120 % of control

Cc1ccc(NS(=O)(=O)c2ccccc2)nc1
inactive: dose: 25.0 mg/kg/injection, schedule: Q01DX009 (ip), vehicle: saline with Tween-80 110 % of control | [4] 100 % of control | [5] 100 % of control | [6] 95 % of control | [9] 105 % of control

Clc1nnc(Cl)c(Cl)c1Cl
inactive: dose: 0.1 mg/kg/injection, schedule: Q01DX009 (ip), vehicle: saline with Tween-80 100 % of control | dose: 0.1 mg/kg/injection, schedule: Q04DX003 (ip), vehicle: saline with Tween-80 100 % of control | dose: 0.2 mg/kg/injection, schedule: Q01DX009 (ip), vehicle: saline with Tween-80 95 % of control | dose: 0.2 mg/kg/injection, schedule: Q04DX003 (ip), vehicle: saline with Tween-80 100 % of control | dose: 0.38 mg/kg/injection, schedule: Q04DX003 (ip), vehicle: saline with Tween-80 90 % of control | dose: 0.4 mg/kg/injection, schedule: Q04DX003 (ip), vehicle: saline with Tween-80 100 % of control

O=[N+]([O-])c1cn[n+]([O-])c2ccccc12
inactive: dose: 12.5 mg/kg/injection, schedule: Q01DX009 (ip), vehicle: saline with Tween-80 119 % of control | [4] 86 % of control

c1ccc(-c2n[nH]c(-c3[nH]nc(-c4ccccc4)c3-c3ccccc3)c2-c2ccccc2)cc1
inactive: dose: 60.0 mg/kg/injection, schedule: Q01DX005 (ip), vehicle: saline with Tween-80 100 % of control | dose: 120.0 mg/kg/injection, schedule: Q01DX005 (ip), vehicle: saline with Tween-80 103 % of control | dose: 240.0 mg/kg/injection, schedule: Q01DX005 (ip), vehicle: saline with Tween-80 101 % of control

CN1CCc2nc[nH]c2C1
inactive: [8] 97 % of control | dose: 200.0 mg/kg/injection, schedule: Q04DX002 (ip), vehicle: saline 101 % of control | dose: 400.0 mg/kg/injection, schedule: Q04DX002 (ip), vehicle: saline 99 % of control
